Reference: patent publication US20220232835A1, “PLANT HEALTH EFFECT OF PURPUREOCILLIUM LILACINUM” (priority 2016, published 2022)

Columns and labels:
[1] = test system: tomato seedlings (Lycopersicon lycopersicum); test: Drench test in tomato: shoot biomass (plant health); assay type: in vivo; conditions: 10 mg fluopyram/plant at transplanting
Description: (§1) To prepare a suitable dosage form the formulated product PL251 (liquid formulation of P. lilacinum comprising BREAK-THRU® S240 and AEROSIL®) is diluted with water to the desired concentration.
(§2) A quantity of 5,000 cm^3 of sandy loam soil, pH 6.8 per pot is mixed with 150,000 infective units (mixed population of eggs and juveniles) of the Southern Root Knot Nematode (Meloidogyne incognita). The desired concentration of Purpureocillium lilacinum strain 251 is drenched in 400 mL of solution (application A) to obtain 80% field capacity. Pots are incubated at 25° C. until transplanting of tomato seedlings (Lycopersicon lycopersicum) at 7 days after drench application A. At the day of transplanting a second drench application (application B) is carried out with 400 mL of solution.
(§3) After transplanting of tomato seedlings several post-plant application patterns are tested using 400 mL of solution per application (Table A).
(§4) In addition, 10 mg of the nematicide fluopyram (VELUM® PRIME, suspension concentrate SC 400) is applied at transplanting and used as a chemical reference. The non-treated control (UTC) is drenched with 400 mL of water at each application. […]
(§5) After the specified period the nematicidal activity is determined on the basis of the percentage of gall reduction. […] Moreover the shoot biomass is also determined to assess the overall plant health status. […]

[2] = test system: Southern Root Knot Nematode (Meloidogyne incognita); test: Drench test in tomato: nematicidal activity (percentage of gall reduction); assay type: in vivo; conditions: 10 mg per plant at transplanting; 3,000 Meloidogyne incognita per 100 cm^3 of soil
Description: as §1, §2, §3, §4, §5

O=C(NCCc1ncc(C(F)(F)F)cc1Cl)c1ccccc1C(F)(F)F [fluopyram]
shoot fresh weight vs UTC (ANOVA, Bonferroni) [1]: significant improvement of shoot fresh weight | nematicidal activity (percentage of gall reduction) [2]: excellent biocontrol activity
